Test results as given in patent US20240383913A1, “THIOPHENE RING COMPOUND, PREPARATION METHOD THEREFOR AND APPLICATION THEREOF” (CENTER FOR EXCELLENCE IN MOLECULAR CELL SCIENCE, CHINESE …, priority 2021, published 2024).

Assays:
dopamine D2 receptors [1] = biological target: T1, dopamine D2 receptors (Homo sapiens (Human), UniProt P14416); assay: Affinity for dopamine D2 receptors, radioligand competition with [3H]-Methylspiperone; assay type: binding; conditions: 293T membrane transiently expressing D2
Protocol: The affinity of the compounds of the present disclosure for the dopamine D2 receptors was determined by the method of radioligand competition experiment. In the first step, a cell membrane component containing specific dopamine D2 receptors was prepared. A 10 cm culture dish was used for transfection with 10 ng of the dopamine D2 receptors and 40 μL of polyethylenimine (PEI hereafter). After 48 hours, the 10 cm culture dish was taken out from the cell culture incubator and the cultured cells had expressed the dopamine D2 receptors. A vacuum pump was used to suck off the culture medium, 3 mL of lysis buffer was added to each culture dish, and the cells were placed in a 4° C. cold room for 10 minutes. After the cells were detached, the cells were transferred to a 15 mL centrifuge tube and centrifuged at 1500 rpm for 5 minutes at 4° C., and the supernatant was discarded. The cell pellet was transferred to a tissue homogenizer, and 3 mL of lysis buffer was added and fully ground until the cells were broken. Then, cell suspension was equally aliquoted into several EP tubes, centrifuged at 12000 rpm for 5 minutes at 4° C., and the supernatant was discarded. The precipitate was the cell membrane component containing the dopamine D2 receptors. […] First, a standard binding buffer was added to the cell membrane component containing the dopamine D2 receptors, and the cell membrane was disrupted and resuspended with an electric tissue homogenizer. 30 μL of membrane protein suspension was added to each well of a 96-well plate. Then, 30 μL of different drugs were added to the 96-well plate sequentially from bottom to top to ensure that the final drug concentrations were 10^−5 M, 10^−6 M, 10^−7 M, 10^−8 M, 10^−9 M, and 0 M, with two replicates per treatment. Next, 30 μL of [3H]-Methylspiperone was added to each well of the 96-well plate. The plate was incubated for 2 hours at room temperature in the dark. Detection was conducted. The machine readout value reflected the amount of [3H]-Methylspiperone bound on the membrane, and after further data processing, the affinity Ki values of different compounds for the dopamine D2 receptors were obtained.

dopamine D2 receptors [2] = biological target: T1, dopamine D2 receptors; assay: Dopamine D2 receptor β-arrestin2 BRET (recruitment); assay type: cell-based; conditions: for Emax: read-out: β-arrestin2 BRET (Emax %);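 for all read-outs here: cells co-expressing Rluc-fused D2 receptor, GRK2 and GFP2-fused β-arrestin2, BRET read with coelenterazine 400a after adding drug over a concentration series, in duplicate wells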
Protocol: (§1) To examine the downstream G protein signaling pathway mediated by dopamine D2 receptors, on the first day, a 6 cm culture dish was used for transfection with 1 μg of dopamine D2 receptors, 1 μg of Gαi1 containing a C-terminal seaweed luciferase (Gαi1-Rluc), 1 μg of Gβ3, 1 μg of Gγ9 containing C-terminal green fluorescent protein (Gγ9-GFP), and 16 μL of PEI. At the same time, in order to examine the downstream β-arrestin2 signaling pathway mediated by dopamine D2 receptors, on the first day, a 6 cm culture dish was used for transfection with 500 μg of dopamine D2 receptors containing C-terminal seaweed luciferase (D2-Rluc), 500 μg of G protein-coupled receptor kinase 2 (GRK2), 2500 μg of β-arrestin2 containing N-terminal green fluorescent protein (GFP2-ARRB2) mixed with 14 μL of PEI. The next day, the confluent cells of a 6 cm culture dish were digested and reseeded into a 96-well plate with 100 μL of culture medium added to each well. On the third day, the drugs were added for test. The 96-well plate was taken out from the cell incubator to decant the culture medium, 40 μL of the substrate coelenterazine 400a (final concentration of 5 μM) was added to each well, and then 20 μL of different drugs were added sequentially from left to right to ensure that the final concentration of the drug decreased gradually from bottom to top, with two replicates per treatment. Finally, the prepared samples were loaded on machine for test. The machine readout value reflected the recruitment of β-arrestin2 to the membrane or the dissociation of G protein trimer. The former indicated the degree of activation of the β-arrestin2 signaling pathway downstream of the dopamine D2 receptors, and the latter indicated the degree of activation of the G protein signaling pathway downstream of the dopamine D2 receptors.

5-HT1A receptor [3] = biological target: T2, 5-HT1A receptor (Homo sapiens (Human), UniProt P08908); assay: 5-HT1A receptor Gαi1 BRET (G protein trimer dissociation); assay type: cell-based; conditions: 5-HT1A receptor, G protein pathway; for EC50: read-out: Gαi1 BRET EC50;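 for all read-outs here: cells transiently co-expressing 5-HT1A receptor, luciferase-tagged Gαi1, Gβ3 and GFP-tagged Gγ9, seeded in 96-well plates for BRET measurement of G protein signaling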
Protocol: The affinity of the compounds of the present disclosure for the 5-HTIA receptors was determined by the method of radioligand competition experiment. In the first step, a cell membrane component containing specific 5-HTIA receptor was prepared. A 10 cm culture dish was used for transfection with 10 ng of the 5-HTIA receptor and 40 μL of PEI. After 48 hours, the 10 cm culture dish was taken out from the cell incubator and the cultured cells had expressed the 5-HTIA receptor. A vacuum pump was used to suck off the culture medium, 3 mL of lysis buffer was added to each culture dish, and the cells were placed in a 4° C. cold room for 10 minutes. After the cells were detached, the cells were transferred to a 15 mL centrifuge tube and centrifuged at 1500 rpm for 5 minutes at 4° C., and the supernatant was discarded. The cell pellet was transferred to a tissue homogenizer, and 3 mL of lysis buffer was added and fully ground until the cells were broken. Then, cell suspension was equally aliquoted into several EP tubes, centrifuged at 12000 rpm for 5 minutes at 4° C., and the supernatant was discarded. The precipitate was the cell membrane component containing the 5-HT1A receptor. […] First, a standard binding buffer was added to the cell membrane component containing the 5-HT1A receptor, and the cell membrane was disrupted and resuspended with an electric tissue homogenizer. 30 μL of membrane protein suspension was added to each well of a 96-well plate. Then, 30 μL of different drugs were added to the 96-well plate sequentially from bottom to top to ensure that the final drug concentrations were 10^−5 M, 10^−6 M, 10^−7 M, 10^−8 M, 10^−9 M, and 0 M, with two replicates per treatment. Next, 30 μL of [3H]-LSD was added to each well of the 96-well plate. The plate was incubated for 2 hours at room temperature in the dark. Detection was conducted. The machine readout value reflected the amount of [3H]-LSD bound on the membrane, and after further data processing, the affinity Ki values of different compounds for the 5-HTIA receptor were obtained. To examine the downstream G protein signaling pathway mediated by 5-HTIA receptors, on the first day, a 6 cm culture dish was used for transfection with 1 μg of 5-HTIA receptors, 1 μg of Gαi1 containing C-terminal seaweed luciferase (Gαi1-Rluc), 1 μg of Gβ3, 1 μg of Gγ9 containing C-terminal green fluorescent protein (Gγ9-GFP), and 16 μL of PEI. The next day, the confluent cells of a 6 cm culture dish were digested and reseeded into a 96-well plate with 100 μL of culture medium was added to each well. On the third day, the drugs were added for test. The 96-well plate was taken out from the cell incubator to decant the culture medium, 40 μL of the substrate coelenterazine 400a (final concentration of 5 μM) was added to each well, and then 20 μL of different drugs were added sequentially from left to right to ensure that the final concentration of the drug decreased gradually from bottom to top, with two replicates per treatment. Finally, the prepared samples were loaded on machine for test. The machine readout value reflected the dissociation of G protein trimer, and thereby indicated the degree of activation of the G protein signaling pathway downstream of the 5-HTIA receptors.

dopamine D2 receptors [4] = biological target: T1, dopamine D2 receptors; assay: Dopamine D2 receptor Gαi1 BRET (G protein trimer dissociation); assay type: cell-based; conditions: for Emax: read-out: Gαi1 BRET (Emax %);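 for all read-outs here: transfected cells co-expressing D2 receptor, Gαi1-Rluc, Gβ3 and Gγ9-GFP, BRET with coelenterazine 400a at 5 µM read as G protein trimer dissociation, graded drug concentrations in duplicate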
Protocol: as §1

5-HT2A receptor [5] = biological target: T3, 5-HT2A receptor (Homo sapiens (Human), UniProt P28223); assay: Affinity for 5-HT2A receptors, radioligand competition with [3H]-ketanserin; assay type: binding; conditions: 293T membrane transiently expressing 5-HT2A
5-HT1A receptor [6] = biological target: T2, 5-HT1A receptor; assay: Affinity for 5-HT1A receptors, radioligand competition with [3H]-LSD; assay type: binding; conditions: 293T membrane transiently expressing 5-HT1A; [3H]-LSD; read-out: 5-HT1A affinity Ki;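 note: membranes from cells transiently transfected with 5-HT1A receptor, bound [3H]-LSD displaced by compound at 10^-9 to 10^-5 M, 2 h incubation at room temperature in the dark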
5-HT2A receptor [7] = biological target: T3, 5-HT2A receptor; assay: 5-HT2A receptor β-arrestin2 BRET (recruitment); assay type: cell-based; conditions: 5-HT2A receptor, β-arrestin2 pathway; for EC50: read-out: β-arrestin2 BRET EC50;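 for all read-outs here: cells co-expressing Rluc-tagged 5-HT2A receptor, GRK2 and GFP2-tagged β-arrestin2, read by BRET with coelenterazine 400a (5 µM) across graded drug concentrations in duplicate, signal reflecting β-arrestin2 membrane recruitment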
Protocol: (§2) To examine the downstream G protein signaling pathway mediated by 5-HT2A receptors, on the first day, a 6 cm culture dish was used for transfection with 1 μg of 5-HT2A receptors, 1 μg of Gαq containing C-terminal seaweed luciferase (Gαq-Rluc), 1 μg of Gβ3, 1 μg of Gγ9 containing C-terminal green fluorescent protein (Gγ9-GFP), and 16 μL of PEI. At the same time, in order to examine the downstream β-arrestin2 signaling pathway mediated by 5-HT2A receptors, on the first day, a 6 cm culture dish was used for transfection with 500 μg of 5-HT2A receptors containing C-terminal seaweed luciferase (5-HT2A-Rluc), 500 μg of G protein-coupled receptor kinase 2 (GRK2), 2500 μg of β-arrestin2 containing N-terminal green fluorescent protein (GFP2-ARRB2), and 14 μL of PEI. The next day, the confluent cells of a 6 cm culture dish were digested and reseeded into a 96-well plate with 100 μL of culture medium was added to each well. On the third day, the drugs were added for test. The 96-well plate was taken out from the cell incubator to decant the culture medium, 40 μL of the substrate coelenterazine 400a (final concentration of 5 μM) was added to each well, and then 20 μL of different drugs were added sequentially from left to right to ensure that the final concentration of the drug decreased gradually from bottom to top, with two replicates per treatment. Finally, the prepared samples were loaded on machine for test. The machine readout value reflected the recruitment of β-arrestin2 to the membrane or the dissociation of G protein trimer. The former indicated the degree of activation of the β-arrestin2 signaling pathway downstream of the 5-HT2A receptors, and the latter indicated the degree of activation of the G protein signaling pathway downstream of the 5-HT2A receptors.

5-HT2A receptor [8] = biological target: T3, 5-HT2A receptor; assay: 5-HT2A receptor Gαq BRET (G protein trimer dissociation); assay type: cell-based; conditions: for EC50: read-out: Gαq BRET EC50; for Emax: read-out: Gαq BRET (Emax %);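 for all read-outs here: cells transfected with 5-HT2A receptor, Gαq-Rluc, Gβ3 and Gγ9-GFP, BRET read with coelenterazine 400a (5 µM) across a compound dilution series in duplicate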
Protocol: as §2

[9] = D2 receptor, β-arrestin2 pathway
[10] = D2 receptor, β-arrestin2 pathway, read-out: β-arrestin2 BRET EC50
[11] = D2 receptor, G protein pathway, read-out: Gαi1 BRET EC50
[12] = 5-HT2A receptor, G protein pathway

T2 sequence (P08908 whole entry): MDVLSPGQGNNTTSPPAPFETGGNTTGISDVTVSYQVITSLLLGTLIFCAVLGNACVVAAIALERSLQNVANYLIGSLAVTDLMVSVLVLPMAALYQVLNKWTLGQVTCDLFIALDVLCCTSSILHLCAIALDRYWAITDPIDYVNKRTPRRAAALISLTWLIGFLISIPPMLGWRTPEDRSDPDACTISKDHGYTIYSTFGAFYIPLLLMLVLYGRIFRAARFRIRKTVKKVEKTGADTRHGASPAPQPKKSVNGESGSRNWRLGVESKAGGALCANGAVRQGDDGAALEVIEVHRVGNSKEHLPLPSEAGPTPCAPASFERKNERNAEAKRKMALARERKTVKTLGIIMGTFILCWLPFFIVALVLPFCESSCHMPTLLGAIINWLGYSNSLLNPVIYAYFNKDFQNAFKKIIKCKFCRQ
T1 sequence (P14416 whole entry, the tested form may be a part): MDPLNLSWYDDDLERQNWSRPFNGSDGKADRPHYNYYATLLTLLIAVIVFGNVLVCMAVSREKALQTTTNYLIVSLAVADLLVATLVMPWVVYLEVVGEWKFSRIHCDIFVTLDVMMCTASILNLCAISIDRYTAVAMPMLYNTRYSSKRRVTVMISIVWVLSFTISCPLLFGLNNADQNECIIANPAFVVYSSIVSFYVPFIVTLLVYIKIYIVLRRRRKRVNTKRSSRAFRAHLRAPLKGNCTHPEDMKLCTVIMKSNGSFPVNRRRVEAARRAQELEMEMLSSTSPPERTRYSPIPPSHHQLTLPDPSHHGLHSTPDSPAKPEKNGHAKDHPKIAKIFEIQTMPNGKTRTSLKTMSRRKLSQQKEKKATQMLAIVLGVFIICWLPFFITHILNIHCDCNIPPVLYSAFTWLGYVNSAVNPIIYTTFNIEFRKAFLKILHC
T3 sequence (P28223 whole entry): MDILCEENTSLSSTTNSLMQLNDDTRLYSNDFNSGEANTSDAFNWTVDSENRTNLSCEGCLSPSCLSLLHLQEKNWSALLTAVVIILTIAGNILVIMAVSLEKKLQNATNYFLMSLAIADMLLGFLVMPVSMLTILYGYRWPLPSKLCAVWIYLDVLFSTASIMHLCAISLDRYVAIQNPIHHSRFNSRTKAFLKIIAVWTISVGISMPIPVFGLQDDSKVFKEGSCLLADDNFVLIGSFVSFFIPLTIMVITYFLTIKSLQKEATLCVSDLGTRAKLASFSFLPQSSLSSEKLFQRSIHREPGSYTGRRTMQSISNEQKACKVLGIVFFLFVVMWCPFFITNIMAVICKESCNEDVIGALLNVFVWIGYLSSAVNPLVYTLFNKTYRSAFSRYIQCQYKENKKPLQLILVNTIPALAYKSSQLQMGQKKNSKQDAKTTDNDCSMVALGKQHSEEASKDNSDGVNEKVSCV

`CN(C)C(=O)N[C@H]1CC[C@H](CCN2CCN3c4cccc5scc(c45)C[C@@H]3C2)CC1` [(+)-I-27] was tested, and the Ki (dopamine D2 receptors [1]) was over 10000 nM, the “β-arrestin2 BRET (Emax %)” value (dopamine D2 receptors [2]; [9]) was “(45.78%)” and the EC50 (dopamine D2 receptors [2]; [10]) was 16 nM. The “Gαi1 BRET (Emax %)” value (5-HT1A receptor [3]) was “(60%)”, the EC50 (5-HT1A receptor [3]) was 206 nM and the “Gαi1 BRET (Emax %)” value (dopamine D2 receptors [4]; D2 receptor, G protein pathway) was “(69.54%)”. It also gave an EC50 (dopamine D2 receptors [4]; [11]) of 9.16 nM, a Ki (5-HT2A receptor [5]) of 450 nM and a Ki (5-HT1A receptor [6]) of 170 nM.
Compound `c1cc2c3c(csc3c1)CC1CN(CC3CC3)CCN21` (stereo not shown) [Compound I-4, 8-(Cyclopropylmethyl)-6,6a,7,8,9,10-Hexahydropyrazino[1,2-a]Thieno [4,3,2-De]Quinoline] has a Ki (dopamine D2 receptors [1]) of 320 nM, an Emax (dopamine D2 receptors [2]; [9]) of 16.4% and an EC50 (dopamine D2 receptors [2]; [10]) of 11.2 nM. For the same compound, the Emax (5-HT1A receptor [3]) was 69%, the EC50 (5-HT1A receptor [3]) was 12800 nM and the Emax (dopamine D2 receptors [4]; D2 receptor, G protein pathway) was 25%. For the same compound, the EC50 (dopamine D2 receptors [4]; [11]) was 36.3 nM and the Ki (5-HT1A receptor [6]) was 590 nM.
Work on `c1csc(CCN2CCN3c4cccc5scc(c45)CC3C2)c1` (stereo not shown) [Compound I-6, 8-(2-(Thiophen-2-Yl)Ethyl)-6,6a,7,8,9,10-Hexahydropyrazino[1,2-a]Thieno [4,3,2-De]Quinoline] yielded a Ki (dopamine D2 receptors [1]) of 5730 nM, an EC50 (dopamine D2 receptors [2]) of 299 nM and an Emax (dopamine D2 receptors [2]) of 20.2%. The Emax (5-HT2A receptor [7]) was 45.4%, the EC50 (5-HT2A receptor [7]) was 8340 nM and the Emax (5-HT1A receptor [3]) was 90%. The EC50 (5-HT1A receptor [3]) was 3230 nM, the EC50 (dopamine D2 receptors [4]) was 342 nM and the Emax (dopamine D2 receptors [4]) was 58.4%. It also gave a Ki (5-HT2A receptor [5]) of 7250 nM and a Ki (5-HT1A receptor [6]) of 2730 nM.
`c1ccc(-c2cccc(CN3CCN4c5cccc6scc(c56)CC4C3)c2)cc1` (stereo not shown) [Compound I-7, 8-([1, l′-Biphenyl]-3-Ylmethyl)-6,6a, 7,8,9, 10-Hexahydropyrazino[1,2-a]Thieno [4,3,2-De]Quinoline] showed an EC50 (5-HT2A receptor [8]; [12]) of 140 nM, an Emax (5-HT2A receptor [8]) of 36.9% and a Ki (5-HT1A receptor [6]) of 39300 nM.
Work on `O=C1NCCN1c1cccc(CN2CCN3c4cccc5scc(c45)CC3C2)c1` (stereo not shown) [Compound I-9, 1-(3-((6a,7,9,10-Tetrahydropyrazino[1,2-a]Thieno [4,3,2-De]Quinolin-8 (6H)-Yl)Methyl)Phenyl) Imidazolidin-2-One] yielded a Ki (dopamine D2 receptors [1]) of 800 nM, an EC50 (5-HT2A receptor [8]; [12]) of 747 nM and an Emax (5-HT2A receptor [8]) of 25%. The Emax (dopamine D2 receptors [2]; [9]) was 24.2%, the EC50 (dopamine D2 receptors [2]; [10]) was 28.6 nM and the Emax (5-HT1A receptor [3]) was 55%. The EC50 (5-HT1A receptor [3]) was 14400 nM, the Emax (dopamine D2 receptors [4]; D2 receptor, G protein pathway) was 23.1% and the EC50 (dopamine D2 receptors [4]; [11]) was 281 nM. It also gave a Ki (5-HT2A receptor [5]) of 690 nM and a Ki (5-HT1A receptor [6]) of 5460 nM.
`O=C(CN1CCN2c3cccc4scc(c34)CC2C1)c1ccc(F)cc1` (stereo not shown) [Compound I-10, 1-(4-Fluorophenyl)-2-(6a,7,9,10-Tetrahydropyrazino[1,2-a]Thieno [4,3,2-De]Quinolin-8 (6H)-Yl) Ethan-1-One] showed a Ki (dopamine D2 receptors [1]) of 2060 nM, an Emax (5-HT2A receptor [8]) of 110% and an EC50 (dopamine D2 receptors [2]; [10]) of 14.3 nM. It also gave an Emax (dopamine D2 receptors [2]) of 21.5%, an Emax (5-HT2A receptor [7]) of 71.6% and an Emax (5-HT1A receptor [3]) of 71%. The EC50 (5-HT1A receptor [3]) was 7200 nM, the EC50 (dopamine D2 receptors [4]; [11]) was 796 nM and the Emax (dopamine D2 receptors [4]) was 17.1%. The Ki (5-HT1A receptor [6]) was 970 nM.
`O=C(CCCN1CCN2c3cccc4scc(c34)CC2C1)c1ccc(F)cc1` (stereo not shown) [Compound I-11, 1-(4-Fluorophenyl)-4-(6a,7,9,10-Tetrahydropyrazino[1,2-a]Thieno [4,3,2-De]Quinolin-8 (6H)-Yl) Butan-1-One] was tested, and the Ki (dopamine D2 receptors [1]) was 470 nM, the Emax (5-HT1A receptor [3]) was 28% and the EC50 (5-HT1A receptor [3]) was 3870 nM. For the same compound, the Ki (5-HT2A receptor [5]) was 320 nM and the Ki (5-HT1A receptor [6]) was 4540 nM.
With `O=C(NCCN1CCN2c3cccc4scc(c34)CC2C1)c1ccc(F)cc1` (stereo not shown) [Compound I-12, 4-Fluoro-N-(2-(6a,7,9,10-Tetrahydropyrazino[1,2-a]Thieno [4,3,2-De]Quinolin-8 (6H)-Yl)Ethyl)Benzamide] the Ki (dopamine D2 receptors [1]) was 1210 nM, the Emax (5-HT2A receptor [7]) was 5.7% and the EC50 (5-HT2A receptor [7]) was 5240 nM. It also gave an Emax (5-HT1A receptor [3]) of 93%, an EC50 (5-HT1A receptor [3]) of 1320 nM and a Ki (5-HT2A receptor [5]) of 1520 nM. The Ki (5-HT1A receptor [6]) was 590 nM.
In the case of `O=C(NCCN1CCN2c3cccc4scc(c34)CC2C1)C1CCOCC1` (stereo not shown) [Compound I-14, N-(2-(6a,7,9,10-Tetrahydropyrazino[1,2-a]Thieno [4,3,2-De]Quinolin-8 (6H)-Yl)Ethyl)Tetrahydro-2H-Pyran-4-Carboxamide], the Ki (dopamine D2 receptors [1]) is reported as over 10000 nM, the “Gαq BRET (Emax %)” value (5-HT2A receptor [8]; [12]) is reported as “(29.10%)” and the EC50 (5-HT2A receptor [8]; [12]) is reported as 475 nM. The “β-arrestin2 BRET (Emax %)” value (5-HT2A receptor [7]) was “(21.00%)”, the EC50 (5-HT2A receptor [7]) was 123 nM and the Emax (5-HT1A receptor [3]) was 86%. It also gave an EC50 (5-HT1A receptor [3]) of 2000 nM, a Ki (5-HT2A receptor [5]) of 1190 nM and a Ki (5-HT1A receptor [6]) of 1300 nM.
